Legend:
[1] = Test for hygroscopicity (water content at different humidity levels); assay type: physicochemical; conditions: for water content: 25° C.; for change of water content: one week under various humidity conditions
[2] = physchem; conditions: 37 °C, pH 5, aqueous buffer
[3] = Chemical stability in solid state, accelerated test at 60° C. (HPLC content); assay type: physicochemical; conditions: for changes in the content: accelerated test at 60° C.; for content (HPLC): solid state, 60° C.
Text: 1. HPLC Analysis Conditions:
Detector: UV Absorbance (at 237 nm)
Column: Octadesyl silica gel C18 (4.6 mm×150mm, 5 μm)
Mobile Phase: Potassium dihydrogenphosphate monobasic (0.03M): methanol=4:6 (v/v)

[4] = Chemical stability in aqueous state, 25° C., 4 weeks, complete darkness (HPLC); assay type: physicochemical; conditions: distilled water
Protocol: The resulting aqueous solutions were stored at 25° C. for 4 weeks in complete darkness, after which a measurement was made of the contents of the salts with resort to HPLC under the same conditions as in the solid state.

[5] = Test for light stability, aqueous solution exposed to daylight (HPLC content); assay type: physicochemical; conditions: for color change: 4 weeks at 25° C., daylight; for content (HPLC): stored for 4 weeks at 25° C. daylight
Protocol: The resulting aqueous solutions were stored at 25° C. for 4 weeks while being exposed to daylight. A measurement was made of the contents of the salts with resort to HPLC under the same conditions as in the chemical stability test.

SMILES | water content ([1]; 25% RH, 1 week) [%] | water content ([1]; 60% RH, 1 week) [%] | water content ([1]; 75% RH, 1 week) [%] | water content ([1]; 90% RH, 1 week) [%] | water content ([1]; Initial) [%] | change of water content [1] | solubility [2] [µg/mL] | changes in the content [3] | content (HPLC) ([3]; 1 week) [%] | content (HPLC) ([3]; 2 weeks) [%] | content (HPLC) ([3]; initial) [%] | decomposition products and content change [4] | color change [5] | content (HPLC) [5] [%]
CCOC(=O)C1=C(COCCN)NC(C)=C(C(=O)OC)C1c1ccccc1Cl (stereo not drawn) [Besylate, Amlodipine Besylate] | 0.10 | 0.09 | 0.15 | 0.17 | 0.14 | kept its initial water content without great fluctuation | 3150 | virtually no changes in the content | 99.6 | 99.4 | 99.6 | neither decomposition products nor content change is found | turned yellow from white | 82.5
CCOC(=O)C1=C(COCCN)NC(C)=C(C(=O)OC)C1c1ccccc1Cl.Cc1ccc(S(=O)(=O)O)cc1 (stereo not drawn) [Tosylate, Amlodipine para-Toluenesulfonate] | – | – | – | – | – | – | – | – | – | – | – | – | – | 72.0
CCOC(=O)C1=C(COCCN)NC(C)=C(C(=O)OC)[C@@H]1c1ccccc1Cl [(S)-(−)-PyroGlu, Amlodipine (S)-(−)-Pyroglutamate] | 0.26 | 0.3 | 0.31 | 0.32 | 0.3 | kept its initial water content without great fluctuation | – | virtually no changes in the content | 99.6 | – | 99.6 | neither decomposition products nor content change is found | no color change | 98.5
